Data from patent US20220347294A1, “COMPOSITIONS AND METHODS FOR INCREASING THE EFFICACY OF IMMUNOTHERAPIES AND VACCINES” (The Regents of the University of Michigan, priority 2019, published 2022).

Tests used:
[1] = Potato starch gel formation; type: physicochemical; conditions: in water, gentle stirring at 70° C., when the swelling was completed
Method: FIG. 22: Food grade potato starch was pre-hydrated at concentrations of 0.1, 0.5, 2.5, and 5% w/v in water, followed by gentle stirring at 70° C. After cooling, gel formation was examined.
Experiments were next conducted that examined gel formation using potato starch, another prebiotic natural fiber. The impact of potato starch concentration on gel formation was examined. Food grade potato starch (Bob's Red Mill) was pre-hydrated at desired concentrations of 0.1, 0.5, 2.5, and 5% w/v in water, followed by gentle stirring at 70° C. […] Potato starch was instantly gelatinized at concentrations above 5% w/v when the swelling was completed.

[2] = Fiber gel formation: inulin gel with added natural fibers or excipients; type: physicochemical; conditions: heated at 70° C. for 5 minutes, cooled overnight
From the text: FIG. 24: Inulin gel was formed after adding various amounts of natural fibers or excipients. The values shown are the maximum amount of each ingredient that could be added to 23% w/w inulin gel without disrupting the gel formation.
Experiments were next conducted involving the formation of new fiber gels by combining inulin with other natural dietary fibers or pharmaceutical excipients. Briefly, inulin gels were manufactured by first mixing 23% w/w inulin together with other excipients, including resistant potato starch, pectin, guar gum, bean gum, gelatin, or glycerol. Other natural fibers would provide additional nutrient source for commensal microbiome, while other excipients served as thickening reagents in these formulations. The mixtures were then heated at 70° C. for 5 minutes, followed by cooling at room temperature overnight. During the manufacturing processes, both pre-dissolving and dry-blending were used in order to add the excipients, based on individual dissolutions in water. […] The ingredients were first mixed in water (top panel), heated at 70° C. for 5 minutes (middle panel), followed by cooling at room temperature overnight, leading to the formation of fiber gels (bottom panel) (FIG. 23).
Experiments were next conducted that varied the amount of natural fibers and excipients added to inulin gel and determined the ideal composition for forming fiber gels. […] The indicated values are the maximum amount of each ingredient that could be added to 23% w/w inulin gel without disrupting gel formation.

[3] = test system: AH1-specific CD8+ T cells; assay: Tetramer analysis of AH1-specific CD8+ T cells in PBMCs; type: in vivo, BALB/c mice; conditions: for frequencies of AH1-specific CD8+ T cells among PBMCs, fold greater than α-PD-1 treatment alone: prophylactic oral gavage combined with α-PD-1 IgG, peripheral blood day 22
From the text: The effect of these materials were next tested on systemic immune responses. The surrogate marker of tumor specific antigen, MHC-I minimal epitope of CT-26 gp70 (AH1) (H-2L^d-restricted SPSYVYHQF (SEQ ID NO.: 1)), was employed to quantitate the frequency of AH1-specific CD8^+ T cells among peripheral blood mononuclear cells (PBMCs). Mice orally gavaged with inulin and melatonin combined with α-PD-1 IgG induced 1.7-fold and 1.8-fold greater frequencies of AH1-specific CD8^+ T cells, compared with α-PD-1 treatment alone (FIGS. 1E and F).
Peripheral blood mononuclear cells (PBMCs) were collected at preset times to analyze tumor antigen-specific CD8^+ T cells in the systemic circulation. Red blood cells were lysed, and the remaining cells were blocked with anti-CD16/32 antibody for 10 min and stained with peptide-MHC tetramer, including H-2L^d-restricted SPSYVYHQF (SEQ ID NO.: 1) or H-2D^b-restricted ASMTNMELM (SEQ ID NO.: 3). Both the tetramers were provided by NIH Tetramer Core Facility. Cells were also stained anti-CD8-APC (BD Biosciences, #553035) and DAPI for flow cytometric analysis.

[4] = test system: CT26 cells; assay: Prophylactic oral gavage plus α-PD-1 in the CT26 tumor model; type: in vivo, BALB/c mice
Method: FIG. 1A-F: In vivo screening of the candidate materials to prophylactically improve the anti-tumor efficacy of α-PD-1. (A) Mice were prophylactically gavaged various samples on day −7 for three times. Then 1.5×10^5 CT26 cells were inoculated in BALB/c mice subcutaneously (s.c.) on day 0. Mice were gavaged three times again in the first week post tumor inoculation and 5 times per week from day 7. α-PD-1 was i.p. injected on days 10, 14, 18 and 24 at 100 μg/dose. (B) Individual tumor growth curves and (C) average tumor growth curves for mice gavaged with various compounds. (D) Survival rate curves of various groups. (E) The average frequency of AH1-specific CD8^+ T cells in peripheral blood on day 22. (F) The representative scatter plots were measured via flow cytometry. Data represent mean±SEM. *p<0.05, **p<0.01, analyzed by two-way ANOVA (B), or t-test (E), log-rank (Mantel-Cox) test (D).
Among the FDA's list, five candidate materials were selected for the initial screening. Melatonin, found in pineal gland and gastrointestinal tracta, regulates sleep cycle and circadian rhythm. Epigallocatechin gallate (EGCG) is a natural antioxidant in plants. […]
Mice were cared for under the guidelines from federal, state and local. […] Tumor size was measured at preset time, and tumor volume was calculated as length×width^2. […]

[5] = test system: CT26 cells; assay: Therapeutic oral gavage plus α-PD-1 in the CT26 tumor model; type: in vivo, BALB/c mice; conditions: for combination efficacy with α-PD-1 against tumor growth after reducing the dosage by half: 60 mg for inulin, 50 mg/Kg for melatonin
Method: (A) 1.5×10^5 CT26 cells were inoculated in BALB/c mice subcutaneously (sc) on day 0. Mice were gavaged from day 7 (5 times per week). On days 11, 15, 19 and 23, α-PD-1 was injected intraperitoneally (ip) at 100 μg per dose. (B) The average tumor growth curves for mice gavaged with various compounds. Data represent mean±SEM. (C) Individual tumor growth curves and (D) survival rate curves of various groups. […] All the data are from 2-3 independent experiments; n=10 (B, C, D), n=7-10 (E, F) *p<0.05, **p<0.01, analysed by two-way ANOVA (B), one-way ANOVA (E, F) or log-rank (Mantel-Cox) test.
(B) The average tumor growth curves and individual tumor growth curve for mice gavaged with inulin or inulin gel (60 mg/dosage). 1.5×10^5 CT26 cells were inoculated in BALB/c mice subcutaneously. Gavage started from day 7 (5 times per week) and 100 μg of α-PD-1 was ip injected on days 11, 15, 19, 23 and 27. (C) The survival rate curves of various groups. […] PBS was used as a control. […] Shown are the average and individual tumor growth curves for tumor-bearing mice. IgG antibody was used as a control group. Data represent mean SEM. All the data are from 2-3 independent experiments; n=10 (B, C), n=5 (D, I), n=10-15 (E), n=4-7 (G, F), *p<0.05, **p<0.01, ***p<0.001, analysed by one-way ANOVA (E, F), two-way ANOVA (B, I), or log-rank (Mantel-Cox) test (C).
Female C57BL/6 or BALB/c mice of 6-8-week old were obtained from Jackson Laboratory. BALB/c mice were inoculated with 1.5×10^5 CT26 cells per mouse, while C57BL/6 mice were inoculated with 1.2×10^6 MC38 cells per mouse on the right flank by subcutaneous injection on day 0. Tumor-bearing mice were randomly assigned to different groups on day 5. For prophylactic antitumor study, mice were received oral gavage with melatonin (100 mg/Kg bodyweight/dosage), EGCG (100 mg/Kg bodyweight/dosage), fucoidan (200 mg/Kg bodyweight/dosage), oligofructose (120 mg/dosage), or inulin (120 mg/dosage) three times for one week prior to tumor inoculation. After tumor inoculation, mice received oral gavage three times in the first week, followed by five times per week. Mice were injected i.p. with α-PD-1 antibody (100 μg/dosage) on days 10, 14, 18 and 22 post tumor inoculation. For the therapeutic therapy, mice were inoculated with tumor cells on day 0 as indicated above and treated with the indicated samples by oral gavage starting day 7 post tumor inoculation.

[6] = test system: CT26 tumor; assay: Tumor microenvironment analysis (tumor-infiltrating cells, flow cytometry); type: in vivo, BALB/c mice; conditions: combined with α-PD-1 IgG, day 24
Method: After treatment with various samples, tumor tissues were excised at preset time points for analysis of tumor-infiltrating T cells. Tumor tissues were excised, cut into small pieces, and incubated with collagenase type IV (1 mg/ml) and of DNase I (0.1 mg/ml) with gentle shaking. After 30 min, cell suspension was filtered through a 70-μm strainer. Cells were washed with FACS buffer and blocked with anti-CD16/32 antibody. Cells were then stained with various antibodies (CD4 Monoclonal Antibody (GK1.5)-PE (eBioscience), APC-Anti-CD45 Rat Monoclonal Antibody (clone: 30-F11), FITC-Anti-CD45 Rat Monoclonal Antibody (clone: 30-F11), FITC-Rat Anti-Mouse CD8a Clone 53-6.7 (BD Biosciences), PE labeled H-2L-restricted SPSYVYHQF (SEQ ID NO.: 1), FITC-Anti-CD86 Rat Monoclonal Antibody (clone: GL-1, BioLegend), PE-CD11c Armenian Hamster anti Mouse (Clone: N418, eBioscience), PE-Cy7-Anti-mouse PD-1 (clone: 29F.1A12, BioLegend), FITC-CD44 Rat anti-Human/Mouse (clone: IM7, eBioscience), PE-Cy7-CD62L Monoclonal Antibody (MEL-14) (eBioscience), PE-Tcf1/Tcf7 (C63D9) Rabbit mAb (Cell Signaling Technology, #14456), PE-Cy7-Anti-mouse CD86 (Clone: GL1, BD Bioscience), FITC anti-mouse/human CD11b (M1/70, BioLegend), PE-anti-mouse F4/80 (BM8, BioLegend), or APC anti-mouse CD206 (MMR, BioLegend)). The cells were washed and stained with DAPI, or 7-AAD, or efluor 450 for flow cytometric analysis.

[7] = test system: gut microbiota; assay: Gut microbiome analysis by 16S rRNA sequencing of fecal pellets; type: in vivo, BALB/c mice
Method: FIG. 4A-H: Responses of the diversity, richness, and structure of the gut microbiota. 1.5×10^5 CT26 cells were inoculated in BALB/c mice subcutaneously and gavaged from day 7 (5 times per week). α-PD-1 (100 μg per dose) was ip injected on days 11, 15, 19 and 23. The fecal pellets were collected on day 21 for 16s RNA analysis. (A) OTU number, (B) inverse Simposon diversity and (C) nonmetric multidimensional scaling (NMDS) score plot (based on Bray-Curtis) of gut microbiota in various groups. (D) Relative abundances of the gut microbiota at family level and […] genus level. (F) The relative abundances of lactobacillus, akkermansia, roseburia and Ruminococcus_1 in various groups. (G) The relationship of between the tumor sizes and the relative abundances of lactobacillus, akkermansia, roseburia and Ruminococcus_1. (H) The heatmap of SCFAs (lactate, propionate and butyrate) levels of various groups in fecal pellets. Data represent mean±SEM. *p<0.05, **p<0.01, ****p<0.0001, analysed by one-way ANOVA (A, B, F).
Tumor-bearing mice received treatments as indicated above. […] Pooled amplicon library was then sequenced on the Illumina MiSeq platform using the 500 cycle MiSeq V2 Reagent kit (catalog no. MS-102-2003) according to the manufacturer's instructions with modifications of the primer set with custom read 1/read 2 and index primers added to the reagent cartridge. […]

[8] = SCFAs measurement in fecal pellets; type: in vivo, mice; conditions: oral gavage of inulin
Method: Fresh fecal pellets of mice were collected and weighted on day 20 post tumor inoculation and treatments. Fecal pellets were homogenized in DI water and centrifuged at 3000×g for 5 min. The pH of the supernatant was detected by pH meter. For SCFAs measurement, SCFAs were extracted from the fecal pellets using Milli-Q water. The solution was centrifuged for 5 min at 10000×g (4° C.) to pellet bacteria and other solids. The supernatant was collected, and SCFAs were measured via ion chromatography in University of Michigan Biological Station. The concentration of SCFAs was determined using an external standard method.

potato starch
concentration at which potato starch was instantly gelatinized [1]: above 5 % w/v | maximum amount of ingredient that could be added to 23% w/w inulin gel without disrupting gel formation [2]: 5 % (w/w)

guar gum
maximum amount of ingredient that could be added to 23% w/w inulin gel without disrupting gel formation [2]: 0.5 % (w/w)

pectin
maximum amount of ingredient that could be added to 23% w/w inulin gel without disrupting gel formation [2]: 2 % (w/w)

inulin
frequencies of AH1-specific CD8+ T cells among PBMCs, fold greater than α-PD-1 treatment alone [3]: 1.7 fold | AH1-specific CD8+ T cells among PBMCs ([3]; therapeutic setting, day 18 and 24, combined with α-PD-1): significantly higher | anti-tumor efficacy compared with α-PD-1 alone ([4]; prophylactic oral gavage from one week before tumor inoculation, combined with α-PD-1 i.p. 100 μg/dose): best efficacy | mice still surviving on day 50 ([4]; prophylactic oral gavage, inulin 120 mg/dosage, combined with α-PD-1): 60% | combination efficacy with α-PD-1 against tumor growth after reducing the dosage by half [5]: did not compromise | animal survival ([5]; therapeutic oral gavage from day 7, combined with α-PD-1 IgG): extended animal survival | anti-tumor efficacy ([5]; therapeutic oral gavage from day 7, combined with α-PD-1 IgG, compared among candidate agents): strongest anti-tumor efficacy | intratumoral infiltration of T cells compared with α-PD-1 IgG alone [6]: significantly enhanced | abundance of Roseburia in the gut ([7]; oral gavage with α-PD-1): increased | relative abundance of Akkermansia, Lactobacillus, Ruminococcus, and Butyricicoccus ([7]; oral inulin followed by α-PD-1, compared with α-PD-1 alone or PBS group): increased | concentration of lactate, propionate and butyrate in fecal pellets [8]: increased

COc1ccc2[nH]cc(CCNC(C)=O)c2c1 [melatonin, reference compound]
frequencies of AH1-specific CD8+ T cells among PBMCs, fold greater than α-PD-1 treatment alone [3]: 1.8 fold | combination efficacy with α-PD-1 against tumor growth after reducing the dosage by half [5]: did not compromise | intratumoral infiltration of T cells compared with α-PD-1 IgG alone [6]: significantly enhanced

gelatin
maximum amount of ingredient that could be added to 23% w/w inulin gel without disrupting gel formation [2]: 5.0 % (w/w)

OCC(O)CO [glycerol]
maximum amount of ingredient that could be added to 23% w/w inulin gel without disrupting gel formation [2]: 50 % (w/w)
